Test results as given in publication PMC9157009, “Protein proximity networks and functional evaluation of the casein kinase 1 gamma family reveal unique roles for CK1γ3 in WNT signaling” (The Journal of Biological Chemistry, 2022).
Several values for one entry are separate records, joined by “and”; a condition that tells them apart may be missing. Equal values may be shown once. One block for each compound: values may come before it.

Columns and labels:
PCTK3 = biological target: T1, PCTK3 (Homo sapiens, UniProt Q07002); test: scanMAX binding assay, PCTK3; settings: Percent of Control; legend and method: 1 μM; read-out: PCTK3 PoC @ 1 µM
T1 construct: purchased Eurofins DiscoverX Corporation
T1 sequence (Q07002 whole entry): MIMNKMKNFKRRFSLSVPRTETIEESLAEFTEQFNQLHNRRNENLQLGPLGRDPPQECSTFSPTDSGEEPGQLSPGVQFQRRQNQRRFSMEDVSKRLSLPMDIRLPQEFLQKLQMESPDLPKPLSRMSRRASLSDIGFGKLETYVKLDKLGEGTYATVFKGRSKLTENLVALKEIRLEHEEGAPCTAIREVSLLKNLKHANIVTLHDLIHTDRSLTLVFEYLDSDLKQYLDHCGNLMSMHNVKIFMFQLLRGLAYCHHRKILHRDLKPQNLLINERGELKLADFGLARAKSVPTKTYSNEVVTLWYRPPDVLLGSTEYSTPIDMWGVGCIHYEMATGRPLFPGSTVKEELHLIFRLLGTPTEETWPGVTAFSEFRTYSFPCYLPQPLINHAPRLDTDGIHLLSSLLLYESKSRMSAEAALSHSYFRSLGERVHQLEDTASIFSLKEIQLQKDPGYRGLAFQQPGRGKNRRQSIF
Text: (§1) As described previously, this commercial assay platform screens against 403 WT human kinases in binding assays and provides PoC values ([73]).

[1] = test system: BAR reporter (β-catenin-dependent WNT signaling); test: BAR luciferase transcriptional reporter assay in HEK293T B/R cells; format: cell-based, human; settings: for activation of the BAR reporter: HEK293T B/R cells, 10 μM compound for 18 h, compared with dimethyl sulfoxide and FP1
Experimental: All luciferase reporter assays were performed as previously described ([15], [43]). […] In both loss-of-function and gain-of-function experiments, treatments (WNT3A CM or drug) were added 18 h before harvesting cells. Conditions were plated in triplicate, and Renilla normalized values were averaged across triplicates to yield the data presented and standard error. Each assay was repeated in biological triplicate, unless otherwise stated. Firefly luciferase and the Renilla control were detected using the Promega Dual-Luciferase Reporter Assay System per the manufacturer’s protocol (Promega; catalog no.: E1960). Plates were read on the Victor Nivo plate reader (PerkinElmer).

PCTK2 = biological target: T2, PCTK2 (Homo sapiens, UniProt Q00537); test: scanMAX binding assay, PCTK2; settings: Percent of Control; legend and method: 1 μM; read-out: PCTK2 PoC @ 1 µM
T2 construct: purchased Eurofins DiscoverX Corporation
Text: as §1

PFTK1 = biological target: T3, PFTK1 (Homo sapiens, UniProt O94921); test: scanMAX binding assay, PFTK1; settings: Percent of Control; legend and method: 1 μM; read-out: PFTK1 PoC @ 1 µM
T3 construct: purchased Eurofins DiscoverX Corporation
Text: as §1

CK1γ3 [2] = biological target: T4, CK1γ3 (Homo sapiens, UniProt Q9Y6M4); test: Eurofins kinase enzymatic radiometric assay, CK1γ3; format: biochemical; settings: Km = ATP, 9-pt curve in duplicate
T4 construct: purchased Eurofins
T4 sequence (Q9Y6M4 whole entry): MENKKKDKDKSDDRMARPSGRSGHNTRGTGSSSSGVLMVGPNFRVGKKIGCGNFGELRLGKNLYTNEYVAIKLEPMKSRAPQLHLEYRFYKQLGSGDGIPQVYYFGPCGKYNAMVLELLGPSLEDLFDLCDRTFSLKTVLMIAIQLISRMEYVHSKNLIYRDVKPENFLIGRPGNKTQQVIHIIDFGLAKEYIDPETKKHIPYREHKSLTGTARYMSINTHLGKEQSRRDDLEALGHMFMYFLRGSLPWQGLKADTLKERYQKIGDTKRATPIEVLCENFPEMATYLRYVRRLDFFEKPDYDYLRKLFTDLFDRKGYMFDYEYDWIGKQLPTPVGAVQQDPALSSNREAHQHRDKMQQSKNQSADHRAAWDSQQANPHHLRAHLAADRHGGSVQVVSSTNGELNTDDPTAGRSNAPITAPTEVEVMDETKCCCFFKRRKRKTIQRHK
Text: (§2) Details related to the substrate used, protein constructs, controls, and assay protocol for each kinase assay are included on the Eurofins website: https://www.eurofinsdiscoveryservices.com/.

CK1γ1 [3] = biological target: T5, CK1γ1 (Homo sapiens, UniProt Q9HCP0); test: Eurofins kinase enzymatic radiometric assay, CK1γ1; format: biochemical; settings: Km = ATP, 9-pt curve in duplicate
T5 construct: purchased Eurofins
T5 sequence (Q9HCP0 whole entry): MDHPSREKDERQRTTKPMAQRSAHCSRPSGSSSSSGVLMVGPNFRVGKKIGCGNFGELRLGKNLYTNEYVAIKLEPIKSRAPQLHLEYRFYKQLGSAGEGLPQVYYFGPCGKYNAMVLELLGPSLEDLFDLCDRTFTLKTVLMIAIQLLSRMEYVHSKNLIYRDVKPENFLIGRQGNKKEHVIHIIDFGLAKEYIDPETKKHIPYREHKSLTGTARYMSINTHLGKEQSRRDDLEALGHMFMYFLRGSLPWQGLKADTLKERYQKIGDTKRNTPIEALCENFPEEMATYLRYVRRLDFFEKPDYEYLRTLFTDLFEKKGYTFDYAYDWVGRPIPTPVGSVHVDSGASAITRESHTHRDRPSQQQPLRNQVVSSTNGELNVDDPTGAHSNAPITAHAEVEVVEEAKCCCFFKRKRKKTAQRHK
Text: as §2

DYRK2 = biological target: T6, DYRK2 (Homo sapiens, UniProt Q92630); test: scanMAX binding assay, DYRK2; settings: Percent of Control; legend and method: 1 μM; read-out: DYRK2 PoC @ 1 µM
T6 construct: purchased Eurofins DiscoverX Corporation
T6 sequence (Q92630 whole entry): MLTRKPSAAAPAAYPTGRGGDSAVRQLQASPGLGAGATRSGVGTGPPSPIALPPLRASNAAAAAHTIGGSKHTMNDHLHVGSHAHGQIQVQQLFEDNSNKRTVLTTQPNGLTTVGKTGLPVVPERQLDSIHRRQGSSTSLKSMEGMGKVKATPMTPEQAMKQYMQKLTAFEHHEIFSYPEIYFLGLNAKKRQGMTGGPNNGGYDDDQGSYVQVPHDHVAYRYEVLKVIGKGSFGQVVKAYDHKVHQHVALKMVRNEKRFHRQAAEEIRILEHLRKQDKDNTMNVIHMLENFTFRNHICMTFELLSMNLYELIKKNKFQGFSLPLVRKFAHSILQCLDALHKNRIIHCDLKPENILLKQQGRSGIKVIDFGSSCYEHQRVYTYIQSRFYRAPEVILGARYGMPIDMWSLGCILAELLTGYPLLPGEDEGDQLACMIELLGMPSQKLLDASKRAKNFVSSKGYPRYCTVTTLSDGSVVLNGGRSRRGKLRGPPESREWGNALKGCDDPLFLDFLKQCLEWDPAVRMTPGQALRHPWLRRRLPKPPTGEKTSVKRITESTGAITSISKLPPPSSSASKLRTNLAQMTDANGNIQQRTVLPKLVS
Text: as §1

GSK3β = biological target: T7, GSK3β (Homo sapiens, UniProt P49841); test: scanMAX binding assay, GSK3β; settings: Percent of Control; legend and method: 1 μM; read-out: GSK3β PoC @ 1 µM
T7 construct: purchased Eurofins DiscoverX Corporation
T7 sequence (P49841 whole entry): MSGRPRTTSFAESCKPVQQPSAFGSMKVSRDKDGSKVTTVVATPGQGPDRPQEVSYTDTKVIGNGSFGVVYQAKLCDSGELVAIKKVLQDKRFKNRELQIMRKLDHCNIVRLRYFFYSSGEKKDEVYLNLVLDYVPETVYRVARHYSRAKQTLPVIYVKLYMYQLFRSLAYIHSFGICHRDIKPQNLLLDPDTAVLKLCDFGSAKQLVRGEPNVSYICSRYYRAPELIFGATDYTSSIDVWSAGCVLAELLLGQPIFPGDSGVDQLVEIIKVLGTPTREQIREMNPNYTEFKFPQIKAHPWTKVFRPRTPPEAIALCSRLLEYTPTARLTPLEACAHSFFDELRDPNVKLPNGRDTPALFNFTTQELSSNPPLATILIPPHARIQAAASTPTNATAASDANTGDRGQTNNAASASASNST
Text: as §1

DCAMKL3 = biological target: T8, DCAMKL3 (Homo sapiens, UniProt Q9C098); test: scanMAX binding assay, DCAMKL3; settings: Percent of Control; legend and method: 1 μM; read-out: DCAMKL3 PoC @ 1 µM
T8 construct: purchased Eurofins DiscoverX Corporation
T8 sequence (Q9C098 whole entry): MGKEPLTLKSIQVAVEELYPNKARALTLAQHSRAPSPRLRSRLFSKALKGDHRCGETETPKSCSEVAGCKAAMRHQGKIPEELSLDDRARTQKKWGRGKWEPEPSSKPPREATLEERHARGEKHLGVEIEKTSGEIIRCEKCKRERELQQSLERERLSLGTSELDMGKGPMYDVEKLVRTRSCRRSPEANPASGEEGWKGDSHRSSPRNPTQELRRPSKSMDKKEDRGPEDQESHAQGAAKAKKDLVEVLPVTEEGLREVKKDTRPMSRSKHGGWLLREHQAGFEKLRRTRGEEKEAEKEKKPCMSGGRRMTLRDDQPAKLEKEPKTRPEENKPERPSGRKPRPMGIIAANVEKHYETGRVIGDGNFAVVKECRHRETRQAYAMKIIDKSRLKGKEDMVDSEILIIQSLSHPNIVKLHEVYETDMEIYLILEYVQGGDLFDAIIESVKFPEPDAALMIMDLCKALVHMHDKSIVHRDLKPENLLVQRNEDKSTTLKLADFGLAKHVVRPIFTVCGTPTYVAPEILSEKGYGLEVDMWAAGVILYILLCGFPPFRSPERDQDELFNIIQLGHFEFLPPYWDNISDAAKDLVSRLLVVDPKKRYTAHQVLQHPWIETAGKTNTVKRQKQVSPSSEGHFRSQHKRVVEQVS
Text: as §1

GSK3α = biological target: T9, GSK3α (Homo sapiens, UniProt P49840); test: scanMAX binding assay, GSK3α; settings: Percent of Control; legend and method: 1 μM; read-out: GSK3α PoC @ 1 µM
T9 construct: purchased Eurofins DiscoverX Corporation
Text: as §1

CDKL5 = biological target: T10, CDKL5 (Homo sapiens, UniProt O76039); test: scanMAX binding assay, CDKL5; settings: Percent of Control; legend and method: 1 μM; read-out: CDKL5 PoC @ 1 µM
T10 construct: purchased Eurofins DiscoverX Corporation
Text: as §1

DYRK1B = biological target: T11, DYRK1B (Homo sapiens, UniProt Q9Y463); test: scanMAX binding assay, DYRK1B; settings: Percent of Control; legend and method: 1 μM; read-out: DYRK1B PoC @ 1 µM
T11 construct: purchased Eurofins DiscoverX Corporation
Text: as §1

CAMK1B = biological target: T12, CAMK1B (Homo sapiens, UniProt Q6P2M8); test: scanMAX binding assay, CAMK1B; settings: Percent of Control; legend and method: 1 μM; read-out: CAMK1B PoC @ 1 µM
T12 construct: purchased Eurofins DiscoverX Corporation
Text: as §1

PCTK1 = biological target: T13, PCTK1 (Homo sapiens, UniProt Q00536); test: scanMAX binding assay, PCTK1; settings: Percent of Control; legend and method: 1 μM; read-out: PCTK1 PoC @ 1 µM
T13 construct: purchased Eurofins DiscoverX Corporation
T13 sequence (Q00536 whole entry): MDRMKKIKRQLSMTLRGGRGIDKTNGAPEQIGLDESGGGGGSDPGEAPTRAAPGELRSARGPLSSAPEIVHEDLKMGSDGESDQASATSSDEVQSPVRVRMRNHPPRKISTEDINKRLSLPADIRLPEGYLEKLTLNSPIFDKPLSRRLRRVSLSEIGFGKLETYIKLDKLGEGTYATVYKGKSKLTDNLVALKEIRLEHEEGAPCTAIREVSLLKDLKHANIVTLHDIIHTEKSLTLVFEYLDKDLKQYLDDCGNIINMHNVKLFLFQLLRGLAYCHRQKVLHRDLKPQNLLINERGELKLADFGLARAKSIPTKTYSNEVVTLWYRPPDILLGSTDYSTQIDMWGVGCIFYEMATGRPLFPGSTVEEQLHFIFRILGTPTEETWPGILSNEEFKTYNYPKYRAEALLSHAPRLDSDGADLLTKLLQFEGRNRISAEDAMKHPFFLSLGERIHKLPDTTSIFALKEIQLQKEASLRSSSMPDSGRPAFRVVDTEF
Text: as §1

CK1γ3 [4] = biological target: T4, CK1γ3; test: scanMAX binding assay, CK1γ3; settings: Percent of Control; legend and method: 1 μM; read-out: CK1γ3 PoC @ 1 µM
Text: as §1

CK1γ1 [5] = biological target: T5, CK1γ1; test: scanMAX binding assay, CK1γ1; settings: Percent of Control; legend and method: 1 μM; read-out: CK1γ1 PoC @ 1 µM
Text: as §1

ERK8 = biological target: T14, ERK8 (Homo sapiens, UniProt Q8TD08); test: scanMAX binding assay, ERK8; settings: Percent of Control; legend and method: 1 μM; read-out: ERK8 PoC @ 1 µM
T14 construct: purchased Eurofins DiscoverX Corporation
T14 sequence (Q8TD08 whole entry): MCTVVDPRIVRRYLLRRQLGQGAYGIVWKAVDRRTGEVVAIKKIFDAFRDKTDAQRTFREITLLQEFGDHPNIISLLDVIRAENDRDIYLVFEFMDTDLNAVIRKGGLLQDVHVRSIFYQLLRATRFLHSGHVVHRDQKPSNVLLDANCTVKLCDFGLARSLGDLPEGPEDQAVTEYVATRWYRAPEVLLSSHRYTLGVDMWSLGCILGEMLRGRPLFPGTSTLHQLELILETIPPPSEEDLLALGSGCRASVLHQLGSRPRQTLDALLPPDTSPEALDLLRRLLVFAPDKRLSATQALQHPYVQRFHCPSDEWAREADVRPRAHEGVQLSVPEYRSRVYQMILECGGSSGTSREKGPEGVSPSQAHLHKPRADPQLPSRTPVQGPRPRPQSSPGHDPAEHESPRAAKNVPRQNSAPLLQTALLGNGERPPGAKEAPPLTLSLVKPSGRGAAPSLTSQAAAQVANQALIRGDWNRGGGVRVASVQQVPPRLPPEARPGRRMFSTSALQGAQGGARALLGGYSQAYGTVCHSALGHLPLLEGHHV
Text: as §1

ICK = biological target: T15, ICK (Homo sapiens, UniProt Q9UPZ9); test: scanMAX binding assay, ICK; settings: Percent of Control; legend and method: 1 μM; read-out: ICK PoC @ 1 µM
T15 construct: purchased Eurofins DiscoverX Corporation
T15 sequence (Q9UPZ9 whole entry): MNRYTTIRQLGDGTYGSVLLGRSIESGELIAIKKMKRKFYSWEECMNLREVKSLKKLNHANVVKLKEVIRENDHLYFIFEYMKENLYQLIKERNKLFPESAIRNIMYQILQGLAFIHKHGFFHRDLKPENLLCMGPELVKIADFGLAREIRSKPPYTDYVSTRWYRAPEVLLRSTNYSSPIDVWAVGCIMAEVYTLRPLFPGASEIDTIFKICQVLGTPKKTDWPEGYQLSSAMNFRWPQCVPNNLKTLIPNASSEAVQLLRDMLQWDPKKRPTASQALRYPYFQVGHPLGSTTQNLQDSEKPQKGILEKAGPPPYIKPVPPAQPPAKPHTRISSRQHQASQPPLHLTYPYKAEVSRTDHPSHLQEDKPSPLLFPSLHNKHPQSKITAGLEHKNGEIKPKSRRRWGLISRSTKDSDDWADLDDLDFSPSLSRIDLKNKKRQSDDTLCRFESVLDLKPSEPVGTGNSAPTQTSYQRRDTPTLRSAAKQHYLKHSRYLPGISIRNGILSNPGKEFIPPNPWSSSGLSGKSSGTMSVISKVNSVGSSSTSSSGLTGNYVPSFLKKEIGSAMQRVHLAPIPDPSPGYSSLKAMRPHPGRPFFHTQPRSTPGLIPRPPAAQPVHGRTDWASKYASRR
Text: as §1

CDK7 = biological target: T16, CDK7 (Homo sapiens, UniProt P50613); test: scanMAX binding assay, CDK7; settings: Percent of Control; legend and method: 1 μM; read-out: CDK7 PoC @ 1 µM
T16 construct: purchased Eurofins DiscoverX Corporation
Text: as §1

CK1γ2 = biological target: T17, CK1γ2 (Homo sapiens, UniProt P78368); test: scanMAX binding assay, CK1γ2; settings: Percent of Control; legend and method: 1 μM; read-out: CK1γ2 PoC @ 1 µM
T17 construct: purchased Eurofins
Text: as §1

CK1γ2 (NLuc-CK1γ2) = biological target: T18, CK1γ2 (NLuc-CK1γ2) (Homo sapiens, UniProt P78368); test: NanoBRET cellular target engagement assay, NLuc-CK1γ2 in HEK293T cells; format: cell-based; settings: live HEK293T cells, 0.5 μM tracer K-10
T18 construct: host or cells: HEK293T
Experimental: (§3) HEK293T cells (hypotriploid, fetal) were purchased from ATCC. These cells were grown in Dulbecco’s modified Eagle’s medium (Gibco) supplemented with 10% (v/v) fetal bovine serum (Corning). They were incubated in 5% CO2 at 37 °C and passaged every 72 h with trypsin and not allowed to reach confluency. Constructs for NanoBRET measurements of CK1γ2 (NLuc-CK1γ2) and GSK3β (NLuc-GSK3β) were kindly provided by Promega. NanoBRET assays were carried out as described previously ([74]). Preferred NLuc orientations, both N-terminal in this case, are indicated in parentheses after each construct. Assays were carried out in dose–response as described by the manufacturer using 0.5 μM of tracer K-10 for CK1γ2 and 0.063 μM of tracer K-8 for GSK3β. Two biological replicates were executed with two technical replicates to produce the graphs with error bars shown in Figures 6E, 7E, 8, A and B. Tracer titration curves for these kinases that motivated our tracer selection and working concentration can be found on the Promega website.

GSK3β (NLuc-GSK3β) = biological target: T19, GSK3β (NLuc-GSK3β) (Homo sapiens, UniProt P49841); test: NanoBRET cellular target engagement assay, NLuc-GSK3β in HEK293T cells; format: cell-based; settings: live HEK293T cells, 0.063 μM tracer K-8; read-out: NL-GSK3β NanoBRET IC50
T19 construct: host or cells: HEK293T
T19 sequence (P49841 whole entry): as the sequence (P49841 whole entry) above
Experimental: as §3

[6] = test system: β-catenin-dependent transcription; settings: siRNA screen, BAR firefly luciferase reporter, ref Biechele et al, cited from earlier work; for Average BAR firefly Luciferase (Raw): raw signal per siRNA target

- remaining binding at 1 µM (PCTK3): 1.2%
- remaining binding at 1 µM (PCTK2): 1.4%
- remaining binding at 1 µM (PFTK1): 3.5%
- IC50 (CK1γ3 [2]): ≤ 275 nM and 168 nM
- IC50 (CK1γ1 [3]): ≤ 275 nM and 275 nM
- remaining binding at 1 µM (DYRK2): 7.2%
- remaining binding at 1 µM (GSK3β): 0.4%
- remaining binding at 1 µM (DCAMKL3): 1.9%
- remaining binding at 1 µM (GSK3α): 0.9%
- remaining binding at 1 µM (CDKL5): 0.2%
- remaining binding at 1 µM (DYRK1B): 6%
- remaining binding at 1 µM (CAMK1B): 0%
- remaining binding at 1 µM (PCTK1): 0.2%
- remaining binding at 1 µM (CK1γ3 [4]): 3.3%
- remaining binding at 1 µM (CK1γ1 [5]): 5.2%
- remaining binding at 1 µM (ICK): 1.6%
- remaining binding at 1 µM (CDK7): 1.2%
- remaining binding at 1 µM (CK1γ2): 1%
Compound: CN(C)CC(=O)Nc1n[nH]c2ccc(-c3cn(Cc4ccccc4)nn3)cc12 [AKI00000062a]
- activation of the BAR reporter [1]: robustly activated
- remaining binding at 1 µM (ERK8): 2.5%

- NL-CK1γ2 NanoBRET IC50 (CK1γ2 (NLuc-CK1γ2)): inactive
- IC50 (GSK3β (NLuc-GSK3β)): 0.23 nM
Compound: Cc1cc(Nc2cc(C3CC3)[nH]n2)nc(Nc2ccc(CC#N)cc2)n1 [APY69, reference compound]

Compound: Cc1cc(-c2ccc(CC(=O)Nc3ccc(-c4cccnc4)cc3)cc2)ccn1 [C59, reference compound]
- BAR activation by CK1γ3 overexpression in the absence of WNT3A CM ([1]; HEK293T B/R cells transfected 14 h, 10 μM C59 for 18 h): blocked this activation

Compound: Cc1c[nH]c(-c2cnc(NCCNc3ccc(C#N)cn3)nc2-c2ccc(Cl)cc2Cl)n1 [CHIR99021, reference compound]
- activation of the BAR reporter [1]: robustly activated

Compound: EPHA2
- Fold over control siRNA [6]: 0.4994
- Average BAR firefly Luciferase (Raw) [6]: 13210

Compound: ERBB2
- Fold over control siRNA [6]: 3.138
- Average BAR firefly Luciferase (Raw) [6]: 83000
